# Test results published in US9605026B2, “Hydrogen-bond surrogate peptides and peptidomimetics for p53 reactivation” (New York University, priority 2013, dated 2017).
# Experiments:
# [1] = molecular target: T1, HPV16 E6-p300 association (Homo sapiens, UniProt Q09472); experiment: Immunoprecipitation of HPV16 E6-p300 association in UMSCC47 cells; assay type: cell-based; conditions: UMSCC47, 10 μM, 24 hours
# T1 construct: UMSCC47 cells were treated with control (vehicle), CH1iA (10 μM), or CH1iB (10 μM) for 24 hours; endogenous in cells; host or cells: UMSCC47 (HPV16-positive HNSCC cells)
# T1 sequence (Q09472 whole entry): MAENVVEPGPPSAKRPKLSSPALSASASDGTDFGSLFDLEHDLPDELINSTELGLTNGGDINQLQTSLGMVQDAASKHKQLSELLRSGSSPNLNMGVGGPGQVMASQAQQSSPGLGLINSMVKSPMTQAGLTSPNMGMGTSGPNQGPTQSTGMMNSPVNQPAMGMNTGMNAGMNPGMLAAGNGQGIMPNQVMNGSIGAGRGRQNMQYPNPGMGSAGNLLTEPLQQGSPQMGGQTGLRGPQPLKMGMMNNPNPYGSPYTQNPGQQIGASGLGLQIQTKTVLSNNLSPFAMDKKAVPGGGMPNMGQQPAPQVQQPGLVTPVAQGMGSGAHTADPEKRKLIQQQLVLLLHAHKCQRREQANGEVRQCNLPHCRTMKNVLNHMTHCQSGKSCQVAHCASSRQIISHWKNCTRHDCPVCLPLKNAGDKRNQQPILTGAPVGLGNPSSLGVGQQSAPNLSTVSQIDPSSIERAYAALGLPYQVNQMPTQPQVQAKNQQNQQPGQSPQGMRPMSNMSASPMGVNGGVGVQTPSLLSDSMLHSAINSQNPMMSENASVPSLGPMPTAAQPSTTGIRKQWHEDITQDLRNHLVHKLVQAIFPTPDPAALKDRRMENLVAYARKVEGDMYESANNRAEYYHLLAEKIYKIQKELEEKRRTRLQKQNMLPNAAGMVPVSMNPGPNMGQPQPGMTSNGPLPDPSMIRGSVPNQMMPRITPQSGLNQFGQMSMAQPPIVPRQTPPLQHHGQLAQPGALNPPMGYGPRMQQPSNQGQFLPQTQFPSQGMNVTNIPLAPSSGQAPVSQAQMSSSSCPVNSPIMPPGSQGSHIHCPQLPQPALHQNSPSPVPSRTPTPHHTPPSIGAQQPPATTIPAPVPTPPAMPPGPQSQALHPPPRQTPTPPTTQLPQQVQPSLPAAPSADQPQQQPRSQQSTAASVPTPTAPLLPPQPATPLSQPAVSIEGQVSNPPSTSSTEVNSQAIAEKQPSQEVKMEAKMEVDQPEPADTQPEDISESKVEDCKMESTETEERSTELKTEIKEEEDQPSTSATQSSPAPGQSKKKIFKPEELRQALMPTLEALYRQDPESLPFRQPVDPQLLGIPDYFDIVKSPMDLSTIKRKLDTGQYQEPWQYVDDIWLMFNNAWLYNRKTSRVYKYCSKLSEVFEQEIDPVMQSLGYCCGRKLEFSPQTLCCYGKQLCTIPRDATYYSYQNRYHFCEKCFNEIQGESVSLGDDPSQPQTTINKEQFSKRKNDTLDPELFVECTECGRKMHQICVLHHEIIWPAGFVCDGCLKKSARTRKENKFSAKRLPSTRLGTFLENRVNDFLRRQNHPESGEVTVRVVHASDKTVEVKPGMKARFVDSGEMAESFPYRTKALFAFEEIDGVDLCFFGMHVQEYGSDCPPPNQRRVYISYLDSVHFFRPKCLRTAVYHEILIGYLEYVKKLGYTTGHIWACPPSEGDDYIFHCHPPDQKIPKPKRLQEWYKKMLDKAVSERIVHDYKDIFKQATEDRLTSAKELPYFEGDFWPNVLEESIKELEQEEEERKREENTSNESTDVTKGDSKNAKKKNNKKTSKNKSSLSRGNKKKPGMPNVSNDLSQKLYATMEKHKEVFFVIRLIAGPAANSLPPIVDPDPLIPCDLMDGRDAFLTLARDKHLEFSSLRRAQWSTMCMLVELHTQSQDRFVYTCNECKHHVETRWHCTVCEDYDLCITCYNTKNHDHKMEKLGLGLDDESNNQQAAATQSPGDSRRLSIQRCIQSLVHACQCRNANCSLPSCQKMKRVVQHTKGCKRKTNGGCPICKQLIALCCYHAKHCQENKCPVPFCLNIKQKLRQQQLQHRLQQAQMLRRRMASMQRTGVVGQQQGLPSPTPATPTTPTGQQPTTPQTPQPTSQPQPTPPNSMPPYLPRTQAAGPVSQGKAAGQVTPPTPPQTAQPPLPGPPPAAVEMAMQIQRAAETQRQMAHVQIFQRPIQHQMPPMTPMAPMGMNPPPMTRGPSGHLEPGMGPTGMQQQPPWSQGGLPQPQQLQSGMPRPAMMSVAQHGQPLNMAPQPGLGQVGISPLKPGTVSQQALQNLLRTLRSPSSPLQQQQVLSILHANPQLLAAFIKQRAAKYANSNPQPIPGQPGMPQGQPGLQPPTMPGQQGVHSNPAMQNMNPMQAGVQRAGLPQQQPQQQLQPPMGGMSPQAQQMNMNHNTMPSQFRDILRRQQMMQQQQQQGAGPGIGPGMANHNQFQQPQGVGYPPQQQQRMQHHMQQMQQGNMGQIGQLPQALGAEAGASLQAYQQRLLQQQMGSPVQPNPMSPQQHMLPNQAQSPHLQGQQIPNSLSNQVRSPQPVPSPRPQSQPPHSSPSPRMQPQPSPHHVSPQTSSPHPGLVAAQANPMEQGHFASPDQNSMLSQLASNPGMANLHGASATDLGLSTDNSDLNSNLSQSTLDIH
# Experimental: FIG. 5C is a graph of p53 activity. UMSCC47 (left) and UMSCC74A (right) cells were co-transfected with a p53 Firefly luciferase reporter plasmid and a control Renilla luciferase plasmid. After 24 hours, cells were treated with control (vehicle), CH1iA (10 μM), or CH1iB (10 μM) for 24 hours. Firefly luciferase activity was normalized to Renilla luciferase activity to control for transfection efficiency. Data is normalized to control and presented as mean±SEM. *P<0.05, n=3. FIG. 5D is a western blot showing total and acetylated p53 levels. UMSCC47 (left) and UMSCC74A (right) cells were treated with control (vehicle), CH1iA (10 μM), or CH1iB (10 μM) for 24 hours. Cell lysates were immunoblotted with anti-p53 or anti-acetylated[K382]-p53 antibody. FIG. 5E is a pair of graphs of p300, p53, p21, miR-34a, and miR-200c expression. UMSCC47 (top panel) and UMSCC74A (bottom panel) cells were treated with control (vehicle), CH1iA (10 μM), or CH1iB (10 μM) for 24 hours. mRNA expression was determined using qPCR with validated TaqMan assays. Data is normalized to control cells and presented as mean±SEM. *P<0.01, control vs. CH1iB, n=3. […] UMSCC47 cells were treated with control (vehicle), CH1iA (10 μM), or CH1iB (10 μM) for 24 hours. Cell lysates were extracted, immunoprecipitated with anti-p300 antibody, and immunoblotted with anti-E6 antibody. […]
# UMSCC47 cells [2] = experiment: Clonogenic survival of UMSCC47 cells; assay type: cell-based, human; conditions: UMSCC47, 10 μM at day 0, colonies at 14 days, vs vehicle
# UMSCC47 cells [3] = experiment: Apoptosis (Annexin V FACS) in UMSCC47 cells; assay type: cell-based, human; conditions: UMSCC47, 10 μM, 24 hours, vs vehicle
# Experimental: (§1) FIG. 6A is a western blot showing total and acetylated p53 levels. UMSCC47 cells were treated with control (vehicle), CH1iB (10 μM), cis-platinum (10 μM), or CH1iB (10 μM) and cis-platinum (10 μM) for 24 hours. Cell lysates were immunoblotted with anti-p53 or anti-acetylated[K382]-p53 antibody. FIG. 6B is a graph of p53 transcriptional activity. UMSCC47 cells were co-transfected with a p53 Firefly luciferase reporter plasmid and a control Renilla luciferase plasmid. After 24 hours, cells were treated with control (vehicle), CH1iB (10 μM), cis-platinum (10 μM), or CH1iB (10 μM) and cis-platinum (10 μM) for 24 hours. Firefly luciferase activity was normalized to Renilla luciferase activity to control for transfection efficiency. […] UMSCC47 cells were treated with control (vehicle), CH1iB (10 μM), cis-platinum (10 μM), or CH1iB (10 μM) and cis-platinum (10 μM) for 24 hours. mRNA expression was determined using qPCR with validated TaqMan assays. […] FACS was used to quantitate Annexin V-positive apoptotic cells (left panel). […] Tumorsphere formation efficiency was calculated as the number of tumorspheres (≧50 μm in diameter) formed in 7 days divided by the original number of cells seeded. Tumorsphere diameter was measured using NIS-Elements software. […]
# Cell proliferation was assessed using the MTT reagent (Roche Molecular Biochemicals, Nutley, N.J.) to detect metabolic active cells. […]
# UMSCC47 cells [4] = experiment: Tumorsphere formation of UMSCC47 cells; assay type: cell-based, human; conditions: UMSCC47, 10 μM, 7 days, vs vehicle
# Experimental: as §1
substance,measurement,setting,value
"XELA*RALDQ-NH2 (ELXRALDQ; HBS: 4-pentenoic acid, N-allylalanine; C-terminal amide; CH1iB) [X 4-pentenoic acid, A* N-allylalanine]",association between E6 and p300,[1],reduced
same,reduction (inhibition) of clonogenic survival,UMSCC47 cells [2],35%
same,enhancement of apoptosis,UMSCC47 cells [3],353%
same,reduction of tumorsphere formation,UMSCC47 cells [4],20%
